Results published in PMC6522510 (Nature Communications, 2019).
Where a name gives a salt, the structure may show the parent alone. Read-outs that look alike come from different tables or passages of the source.

Experiments:
Set-up in all cases: species or system AML cell lines (8); Primary HTS, single concentration about 10 uM, Cell Titer Glo viability; log10 luminescence, per cent inhibition relative to cycloheximide control
Conditions in all cases: 72 h, relative to cycloheximide control, log10 luminescence, inhibitor
CMK = test system: CMK
MV4-11 = test system: MV4-11
MOLM-13 = test system: MOLM-13
M07e = test system: M07e
ML-2 = test system: ML-2
CMS = test system: CMS
CHRF288-11 = test system: CHRF288-11
U937 = test system: U937

Compound	CMK %inh (CMK; CMK %inh, 10 µM)	MV4-11 %inh (MV4-11; MV4-11 %inh, 10 µM)	MOLM-13 %inh (MOLM-13; MOLM-13 %inh, 10 µM)	M07e %inh (M07e; M07e %inh, 10 µM)	ML-2 %inh (ML-2; ML-2 %inh, 10 µM)	CMS %inh (CMS; CMS %inh, 10 µM)	CHRF288-11 %inh (CHRF288-11; CHRF288-11 %inh, 10 µM)	U937 %inh (U937; U937 %inh, 10 µM)	CMK %inh (CMK)	MV4-11 %inh (MV4-11)	MOLM-13 %inh (MOLM-13)	M07e %inh (M07e)	ML-2 %inh (ML-2)	CMS %inh (CMS)	CHRF288-11 %inh (CHRF288-11)	U937 %inh (U937)
CN[C@@H]1[C@H](O[C@H]2[C@H](O[C@H]3[C@H](O)[C@@H](O)[C@H](N=C(N)N)[C@@H](O)[C@@H]3N=C(N)N)O[C@@H](C)[C@]2(O)C=O)O[C@@H](CO)[C@H](O)[C@H]1O [SJ000285297-5, STREPTOMYCIN SULFATE]	-3.106%	1.701%	2.09%	1.975%	1.375%	-4.665%	-4.766%	-2.931%	–	–	–	–	–	–	–	–
Oc1c(Cl)cc(Cl)c2cccnc12 [SJ000285324-3, CHLOROXINE]	–	–	–	–	–	–	–	–	45.1%	77.67%	6.345%	20.56%	49.1%	2.824%	73.25%	23.85%
CC(C)(Oc1ccc(Cl)cc1)C(=O)O [SJ000285361-4, CLOFIBRIC ACID]	–	–	–	–	–	–	–	–	-0.9561%	17.98%	6.685%	1.241%	4.873%	10.42%	12.15%	12.99%
COc1ccc(Cl)cc1C(=O)NCCc1ccc(S(=O)(=O)NC(=O)NC2CCCCC2)cc1 [SJ000285391-7, GLYBURIDE | GLIBENCLAMIDE]	–	–	–	–	–	–	–	–	-6.568%	0.5716%	3.373%	3.672%	1.589%	-0.9752%	12.75%	0.5073%
CCC1(C)CC(=O)NC1=O (stereo not shown) [SJ000285397-7, ETHOSUXIMIDE]	–	–	–	–	–	–	–	–	-1.781%	-0.6847%	28.73%	-0.04938%	3.243%	-0.558%	0.04293%	0.5757%
O=C1CCc2cc(OCCCCc3nnnn3C3CCCCC3)ccc2N1 [SJ000285433-6, CILOSTAZOL]	–	–	–	–	–	–	–	–	3.033%	1.479%	2.454%	4.292%	-1.307%	1.219%	-1.23%	-1.919%
COCCOC(=O)C1=C(C)NC(C)=C(C(=O)OC(C)C)C1c1cccc([N+](=O)[O-])c1 (stereo not shown) [SJ000285435-8, NIMODIPINE]	-2.491%	7.361%	3.286%	-0.8371%	3.664%	-0.4109%	5.054%	6.247%	–	–	–	–	–	–	–	–
COCCOC(=O)C1=C(C)NC(C)=C(C(=O)OC(C)C)C1c1cccc([N+](=O)[O-])c1 (stereo not shown) [SJ000285435-9, NIMODIPINE]	3.053%	8.576%	3.201%	0.4803%	2.121%	-2.02%	6.868%	7.911%	–	–	–	–	–	–	–	–
COCCOC(=O)C1=C(C)NC(C)=C(C(=O)OC(C)C)C1c1cccc([N+](=O)[O-])c1 (stereo not shown) [SJ000285435-10, NIMODIPINE]	2.191%	10.46%	3.657%	6.293%	3.623%	10.67%	10.94%	7.013%	–	–	–	–	–	–	–	–
CC1=Nc2ccc(Cl)cc2S(=O)(=O)N1 [SJ000285438-7, DIAZOXIDE]	–	–	–	–	–	–	–	–	-0.09563%	-7.128%	13.73%	-1.23%	-2.212%	-4.011%	3.174%	2.608%
COc1ccc2cc(CCC(C)=O)ccc2c1 [SJ000285475-3, NABUMETONE]	0.8703%	0.7976%	0.1221%	3.981%	2.121%	0.5932%	-3.141%	-2.289%	–	–	–	–	–	–	–	–
